Experimental data taken from PubChem BioAssay (NCI).
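Tested at 5 concentrations; 48 h exposure; 96-well plates; endpoints linearly interpolated, else capped at highest concentration. GI50 = concentration required for 50% inhibition of growth. The concentration for full growth arrest is given as TGI.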

tested on: MALME-3M melanoma; assay: DTP human tumour cell line panel, 48 h

Row | SMILES | TGI [µM]
1 | O=c1cc(-c2ccc3c(c2)OCO3)[nH]c2cc3c(cc12)OCO3 | 97.8
2 | COC(=O)CC(C)(NS(=O)c1ccc(C)cc1)c1ccccc1 (stereo not given) | > 100
3 | C=C1c2nc3ccccc3n2C=C(c2ccc(OC)cc2)N1c1ccc(OC)cc1 | 48.4
4 | N#CSC#CCCC#CSC#N | 34.3
5 | O=C(O)C1C2c3ccccc3C(c3ccccc32)C1C(=O)NCC1CC1 (stereo not given) | > 100
6 | CCOC(=O)/C(=C/c1ccc(OC)cc1)N(CC)CC | > 100
7 | O=c1c(F)cn(Cc2c(Cl)cccc2Cl)c(=O)n1Cc1c(Cl)cccc1Cl | > 31.6
8 | Cc1ccc(Nc2nc(NNC(=O)Cc3ccccc3)nc(NNC(=O)c3ccncc3)n2)cc1 | > 10
9 | Cc1ccc2nc(-c3ccccc3)cc(=O)n2c1 | > 100
10 | Cc1cn(C2OC(CO[Si](C)(C)C(C)(C)C)C(N(C)O[Si](C)(C)C(C)(C)C)C2[Se]c2ccccc2)c(=O)[nH]c1=O (stereo not given) | 29.4
11 | CNC(=O)NCCCC(NC(C)=O)C(=O)NCc1ccccc1 (stereo not given) | > 100
12 | O=[N+]([O-])c1ccc2nc(Nc3ccccc3)c(Nc3ccccc3)nc2c1 | 4.79
13 | NC(Cc1ccccc1)C(=O)NC(Cc1ccccc1)NC(=O)C(Cc1c[nH]c2ccccc12)C(=O)O (stereo not given) | > 100
14 | COc1cc(S(=O)(=O)Nc2ccc(-c3csc(N4C(=O)CSC4c4cccc(Oc5ccccc5)c4)n3)cc2)ccc1Cl (stereo not given) | > 100
15 | O=S(=O)(O)c1cc(N=Nc2c(O)ccc3ccccc23)cc2c(S(=O)(=O)O)cccc12 | > 100
16 | Cc1ccc(S(=O)(=O)N2C3C=CC(C3)[C@@H]2C(Cl)(Cl)Cl)cc1 (stereo not given in full) | 56.1
17 | COC(=O)c1ccc(Cc2cc(Cc3ccc(C(=O)OC)cc3)cc(Cc3ccc(C(=O)OC)cc3)c2)cc1 | > 25
18 | C[C@]12[C@@H]3CC[C@H]1[C@@H](O)C(=O)N2CC3 | > 100
19 | O=C(C(=O)n1ccc2ccccc21)n1ccc2ccccc21 | > 100
20 | CC(N)/C(N)=N/O (stereo not given) | > 100
21 | CON(C)C(=O)C(C)N(Cc1ccccc1)Cc1ccccc1 (stereo not given) | > 100
22 | CCOC(=O)c1ccc(-c2cc(C)no2)[nH]1 | > 100
23 | COc1cccc(-c2cc(=O)c3cc(N4CCCCC4)ccc3[nH]2)c1 | > 100

tested on: NCI-H23 lung; assay: DTP human tumour cell line panel, 48 h

Row | SMILES | TGI [µM]
24 | O=c1cc(-c2ccc3c(c2)OCO3)[nH]c2cc3c(cc12)OCO3 | > 100
25 | COC(=O)CC(C)(NS(=O)c1ccc(C)cc1)c1ccccc1 (stereo not given) | > 100
26 | C=C1c2nc3ccccc3n2C=C(c2ccc(OC)cc2)N1c1ccc(OC)cc1 | 78.2
27 | N#CSC#CCCC#CSC#N | 42.1
28 | O=C(O)C1C2c3ccccc3C(c3ccccc32)C1C(=O)NCC1CC1 (stereo not given) | > 100
29 | CCOC(=O)/C(=C/c1ccc(OC)cc1)N(CC)CC | > 100
30 | O=c1c(F)cn(Cc2c(Cl)cccc2Cl)c(=O)n1Cc1c(Cl)cccc1Cl | > 31.6
31 | Cc1ccc(Nc2nc(NNC(=O)Cc3ccccc3)nc(NNC(=O)c3ccncc3)n2)cc1 | > 10
32 | Cc1ccc2nc(-c3ccccc3)cc(=O)n2c1 | > 100
33 | Cc1cn(C2OC(CO[Si](C)(C)C(C)(C)C)C(N(C)O[Si](C)(C)C(C)(C)C)C2[Se]c2ccccc2)c(=O)[nH]c1=O (stereo not given) | 24.6
34 | CNC(=O)NCCCC(NC(C)=O)C(=O)NCc1ccccc1 (stereo not given) | > 100
35 | O=[N+]([O-])c1ccc2nc(Nc3ccccc3)c(Nc3ccccc3)nc2c1 | 4.26
36 | NC(Cc1ccccc1)C(=O)NC(Cc1ccccc1)NC(=O)C(Cc1c[nH]c2ccccc12)C(=O)O (stereo not given) | > 100
37 | COc1cc(S(=O)(=O)Nc2ccc(-c3csc(N4C(=O)CSC4c4cccc(Oc5ccccc5)c4)n3)cc2)ccc1Cl (stereo not given) | > 100
38 | Cc1ccc(S(=O)(=O)N2C3C=CC(C3)[C@@H]2C(Cl)(Cl)Cl)cc1 (stereo not given in full) | > 100
39 | C[C@]12[C@@H]3CC[C@H]1[C@@H](O)C(=O)N2CC3 | > 100
40 | O=C(C(=O)n1ccc2ccccc21)n1ccc2ccccc21 | > 100
41 | CC(N)/C(N)=N/O (stereo not given) | > 100
42 | CON(C)C(=O)C(C)N(Cc1ccccc1)Cc1ccccc1 (stereo not given) | > 100
43 | CCOC(=O)c1ccc(-c2cc(C)no2)[nH]1 | > 100
44 | COc1cccc(-c2cc(=O)c3cc(N4CCCCC4)ccc3[nH]2)c1 | > 20.4

tested on: SF-295 CNS; assay: DTP human tumour cell line panel, 48 h

Row | SMILES | GI50 [µM] | TGI [µM]
45 | O=c1cc(-c2ccc3c(c2)OCO3)[nH]c2cc3c(cc12)OCO3 | 29.6 | 87.8
46 | COC(=O)CC(C)(NS(=O)c1ccc(C)cc1)c1ccccc1 (stereo not given) | – | > 100
47 | C=C1c2nc3ccccc3n2C=C(c2ccc(OC)cc2)N1c1ccc(OC)cc1 | – | 32.6
48 | N#CSC#CCCC#CSC#N | – | 32.7
49 | O=C(O)C1C2c3ccccc3C(c3ccccc32)C1C(=O)NCC1CC1 (stereo not given) | – | > 100
50 | CCOC(=O)/C(=C/c1ccc(OC)cc1)N(CC)CC | – | > 100
51 | O=c1c(F)cn(Cc2c(Cl)cccc2Cl)c(=O)n1Cc1c(Cl)cccc1Cl | – | > 31.6
52 | Cc1ccc2nc(-c3ccccc3)cc(=O)n2c1 | – | > 100
53 | Cc1cn(C2OC(CO[Si](C)(C)C(C)(C)C)C(N(C)O[Si](C)(C)C(C)(C)C)C2[Se]c2ccccc2)c(=O)[nH]c1=O (stereo not given) | – | 26
54 | CNC(=O)NCCCC(NC(C)=O)C(=O)NCc1ccccc1 (stereo not given) | – | > 100
55 | O=[N+]([O-])c1ccc2nc(Nc3ccccc3)c(Nc3ccccc3)nc2c1 | – | 2.4
56 | NC(Cc1ccccc1)C(=O)NC(Cc1ccccc1)NC(=O)C(Cc1c[nH]c2ccccc12)C(=O)O (stereo not given) | – | > 100
57 | COc1cc(S(=O)(=O)Nc2ccc(-c3csc(N4C(=O)CSC4c4cccc(Oc5ccccc5)c4)n3)cc2)ccc1Cl (stereo not given) | – | > 100
58 | O=S(=O)(O)c1cc(N=Nc2c(O)ccc3ccccc23)cc2c(S(=O)(=O)O)cccc12 | – | > 100
59 | Cc1ccc(S(=O)(=O)N2C3C=CC(C3)[C@@H]2C(Cl)(Cl)Cl)cc1 (stereo not given in full) | – | 35.1
60 | COC(=O)c1ccc(Cc2cc(Cc3ccc(C(=O)OC)cc3)cc(Cc3ccc(C(=O)OC)cc3)c2)cc1 | – | > 25
61 | C[C@]12[C@@H]3CC[C@H]1[C@@H](O)C(=O)N2CC3 | – | > 100
62 | O=C(C(=O)n1ccc2ccccc21)n1ccc2ccccc21 | – | > 100
63 | CC(N)/C(N)=N/O (stereo not given) | – | > 100
64 | CON(C)C(=O)C(C)N(Cc1ccccc1)Cc1ccccc1 (stereo not given) | – | > 100
65 | CCOC(=O)c1ccc(-c2cc(C)no2)[nH]1 | – | > 100

tested on: HCT-15 colon; assay: DTP human tumour cell line panel, 48 h

Row | SMILES | TGI [µM]
66 | O=c1cc(-c2ccc3c(c2)OCO3)[nH]c2cc3c(cc12)OCO3 | > 100
67 | COC(=O)CC(C)(NS(=O)c1ccc(C)cc1)c1ccccc1 (stereo not given) | > 100
68 | C=C1c2nc3ccccc3n2C=C(c2ccc(OC)cc2)N1c1ccc(OC)cc1 | > 100
69 | N#CSC#CCCC#CSC#N | 34.8
70 | O=C(O)C1C2c3ccccc3C(c3ccccc32)C1C(=O)NCC1CC1 (stereo not given) | > 100
71 | CCOC(=O)/C(=C/c1ccc(OC)cc1)N(CC)CC | > 100
72 | O=c1c(F)cn(Cc2c(Cl)cccc2Cl)c(=O)n1Cc1c(Cl)cccc1Cl | > 31.6
73 | Cc1ccc(Nc2nc(NNC(=O)Cc3ccccc3)nc(NNC(=O)c3ccncc3)n2)cc1 | > 10
74 | Cc1ccc2nc(-c3ccccc3)cc(=O)n2c1 | > 100
75 | Cc1cn(C2OC(CO[Si](C)(C)C(C)(C)C)C(N(C)O[Si](C)(C)C(C)(C)C)C2[Se]c2ccccc2)c(=O)[nH]c1=O (stereo not given) | 30.1
76 | CNC(=O)NCCCC(NC(C)=O)C(=O)NCc1ccccc1 (stereo not given) | > 100
77 | O=[N+]([O-])c1ccc2nc(Nc3ccccc3)c(Nc3ccccc3)nc2c1 | 2.18
78 | NC(Cc1ccccc1)C(=O)NC(Cc1ccccc1)NC(=O)C(Cc1c[nH]c2ccccc12)C(=O)O (stereo not given) | > 100
79 | COc1cc(S(=O)(=O)Nc2ccc(-c3csc(N4C(=O)CSC4c4cccc(Oc5ccccc5)c4)n3)cc2)ccc1Cl (stereo not given) | > 100
80 | O=S(=O)(O)c1cc(N=Nc2c(O)ccc3ccccc23)cc2c(S(=O)(=O)O)cccc12 | > 100
81 | Cc1ccc(S(=O)(=O)N2C3C=CC(C3)[C@@H]2C(Cl)(Cl)Cl)cc1 (stereo not given in full) | 62.6
82 | COC(=O)c1ccc(Cc2cc(Cc3ccc(C(=O)OC)cc3)cc(Cc3ccc(C(=O)OC)cc3)c2)cc1 | > 25
83 | C[C@]12[C@@H]3CC[C@H]1[C@@H](O)C(=O)N2CC3 | > 100
84 | O=C(C(=O)n1ccc2ccccc21)n1ccc2ccccc21 | > 100
